How the values were obtained:
Assay type in all cases: cell-based, human
[1] = test system: HT-29 orthotopic xenograft colorectal tumors; assay: EVOC of orthotopic colon tumors, pERK and H&E/BrDu; settings: lapatinib 4 μM combined with BRAFi (vemurafenib 4 μM)
From the text: 500-700 μmm^3 tumors were resected, sliced, and cultured ex-vivo. Following 4 days of drug treatment, slices were fixed and embedded in paraffin blocks. FFPE slices were stained by H&E, and the percentage of viable cancer cells was morphologically assessed on H&E stained sections by a pathologist as the ratio between viable cancer cell area and total cancer area (viable cancer cells plus necrotic cancer cells). […] Each black dot in a given treatment condition represents a different tumor. P-values were calculated by two-sided t-test. *** P<0.001 ** P<0.01. Error bars represent standard error. […] Names of the six secreted factors with the highest rScore are shown. Factors related to TNF pathways are marked in gray. Results represent the average of at least two experiments. […] Cohort size pre-treatment: 5-6, P-values of the difference on the last day of experiment were calculated by one-sided Mann-Whitney test. * P<0.05. […] Viability percentage was calculated based on the entire field of view per treatment combination. […] FFPE slices were stained by pERK and pERK activity was assessed by a pathologist. […]
For the ex-vivo experiments EVOCs from immunocompromised mice bearing human tumors were generated, as further described hereinbelow. For the in-vivo validation experiments, mice bearing subcutaneous tumors were used; and response was measured by evaluating tumor volume. […]

[2] = test system: H1975 xenografts; assay: EVOC viability; settings: afatinib 3-4 μM
Procedure: Vehicle—DMSO, FGFRi—AZD4547 2-4 μM, INSRi—linsitinib 2 μM, METi—crizotinib 2-4 μM, EGFRi—afatinib 3-4 μM. Each black dot in a given treatment condition represents a different tumor. P-values were calculated by two-sided t-test. ** P<0.01, * P<0.05. Error bars represent standard error. […] Viability percentage is given per treatment combination. Scale bar represents 50 μm. […] Error bars represent standard error. […] EGFRi—gefitinib 1.6 μM, FGFRi—AZD4547 0.2 μM. The percentage of viable cancer cells was morphologically assessed on H&E stained sections by a pathologist as the ratio between viable cancer cell area and total cancer area (viable cancer cells plus necrotic cancer cells). […] Viability score was calculated based on the entire field of view. […]
Immunohistochemistry of EVOC tissues: To assess response therapy, 4 μm FFPE tissue slices were stained with H&E, or with specific antibodies: anti-pERK (Cell Signaling, #4370) followed by HRP conjugated secondary antibody (anti-Rabbit HRP, ZUC032, ZytoChem) and DAB staining (DAB substrate kit, DAB057, ZytoChem). […] All slides were scanned using the Pannoramic SCAN II (3[sequence]) and analyzed by a pathologist. The percentage of viable cancer cells was morphologically assessed on H&E stained sections by a pathologist as the ratio between viable cancer cell area and total cancer area (viable cancer cells plus necrotic cancer cells).

[3] = test system: BRAF (V600E) melanoma cell lines; assay: High-throughput secretome screen of GFP-labeled cells (rScore, bScore, ranks); settings: G361 and SK-MEL-5; PLX4720 2 μM, PD184352 1 μM, EMAPII 50 ng/ml
Procedure: Cell lines—All cell lines (Table 1 hereinbelow) were cultured in DMEM supplemented with 100 units/ml Penicillin and Streptomycin, 2 μmM Glutamine, 1 μmM Pyruvate and 10% FCS, and maintained in a humidified incubator at 37° C. and 5% CO2. Cells were routinely tested for Mycoplasma contamination by PCR. To generate stable cell lines constitutively expressing GFP, cells were infected with lentivirus bearing plasmid pLEX_TRC206 and sorted by FACS to enrich for GFP positive population. For the in-vitro experiments, human cancer cell lines which constitutively expressed GFP were treated with various cytotoxic and targeted drugs (see Table 1 hereinbelow); and the effect of different secreted factors (Table 2 hereinbelow) on the innate resistance to a drug based on the cells' GFP level was determined.
High throughput in-vitro screens—For high-throughput screens or drug dose curves, cells were counted by Vi-Cell XR (Beckman coulter). Cells were seeded on 384 wells plates (Corning, 3712) using the EL406 washer dispenser (BioTek). Liquid handling of medium and drugs was effected by CyBi (WellFlex vario, CyBio). GFP fluorescence of cells was measured at 477/517 nm (excitation/emission) using Cytation3 (BioTek). Due to fluorescence reading bias at plate margins and corners, these margins were discarded for analysis.
High-throughput secretome screens—To screen for the effect of secreted factors on the response of cell lines to different drugs, the following seven-days procedure was performed. On day 0, GFP expressing cells were seeded at 1500-2000 cells per well on 384-wells plates (Corning, 3712), depending on the cell line's proliferation rate. Each plate was seeded with one cell line. At day 1, each plate was treated with the secretome library (Table 2 hereinabove), one well per factor. Immediately afterwards, each plate was treated either with a drug (Table 1 hereinabove) at the EC90 concentration or with DMSO control. The CyBi liquid handler was used to treat each plate with a drug and the secretome library as well as to replace the medium, drug and secreted factors following 3 days of incubation (day 4). Cell fluorescence was read at days 1, 4 and 7 by Cytation3, and for some of the experiments at day 6 as well. Wells of interest were imaged at day 7 using the Operetta (PerkinElmer).
(2) Based on observations, the plate area spanning rows 4-13 and columns 4-21 was hardly affected by plate margins biases. This area is referred to herein as plate core. To control for row specific and column specific biases, plate outliers (Zscore>4 or Zscore<−4) and edges were masked. Next, to capture row and column (col) biases for the i-th row and the j-th column, the bias factor was calculated:
Upon QC completion, 199 experiment plates and 79 control (DMSO) plates were left for further analysis. • 4—Scoring methods-A GFP value for wells without secretome factors was obtained by averaging over the plate internal control wells. Those wells contained the solvents used in the secretome library. pScore: The effect of the secreted factors on proliferation under DMSO was evaluated using pScore (proliferation score). Values were given in percent units.
rScore: The effect of the secreted factors on resistance to anti-cancer drugs was evaluated using rScore (rescue score). rScore was assigned to a given factor under two conditions: • 1. drug effect was >30% (residual drug growth<0.7) • 2. proliferation ratio between factor treated and untreated cells in the presence of drug was higher than one:
rSscore=S−S*residual drug growth
Based on manual inspection of the rScore distribution across the data, the threshold for a potential effect on drug resistance was set to 0.2 (FIGS. 8A-D).
(*) Negative values were considered as zero. […] Groups with less than 4 experiments were discarded, finally resulting in 13 groups of experiments (FIG. 1E). […]

[4] = test system: pERK in G361 cell line; assay: In-cell western blot of pERK; settings: G361 cells treated with the BRAF inhibitor (vemurafenib 2 μM and trametinib 1 nM)
Procedure: PLX4720—BRAFi, 2 μM; PD184352—MEKi, 1 μM, EMAPII—50 ng/ml. P-value of the difference between GFP(drug)/GFP(no-treatment) and GFP(drug+EMAPII)/GFP(no-treatment), at day 7, was calculated by two-sided t-test. ** p<0.01, *** p<0.001. Average rScore (+/−SE) was calculated from at least four different experiments. […] A total of 69 experiments are shown. […] The effect of FGF2 (10 ng/ml), EMAPII (10 ng/ml) or AIMP1 (10 ng/ml) on G361 μmelanoma cells treated with vemurafenib (2 μM) was measured with or without the FGFR inhibitor PD17307 (0.5 μM). Data represent an average of 4 to 8 experiments. P-value was calculated by two-sided t-test. *** p<0.001. Error bars represent standard error. […] P-values were calculated by two-sided t-test relative to luciferase. * p<0.05, Q-value=0.1. […] P-value was calculated by two-sided t-test. *** p<0.001.
In-cell western blot—To validate that EMAPII mediates its effect on resistance to BRAF inhibition via the FGF receptors (FIG. 2G), the melanoma BRAF mutated cell line G361 was seeded in a 384-wells plate at a concentration of 16,000 cells per well. […] Finally, the plate was scanned with Odyssey (Li-cor) using microplate settings (169 μm, […]), and fluorescence intensity was quantified and normalized to the DRAQ level, and then to no drug control (DMSO).

**Q.** Which “downstream pERK signaling” value [1] does the source give for `CS(=O)(=O)CCNCc1ccc(-c2ccc3ncnc(Nc4ccc(OCc5cccc(F)c5)c(Cl)c4)c3c2)o1` [lapatinib] here?
**A.** The value was “completely blocked pERK signaling”.

**Q.** `CN(C)C/C=C/C(=O)Nc1cc2c(Nc3ccc(F)c(Cl)c3)ncnc2cc1O[C@H]1CCOC1` [afatinib] was tested. Which “decrease of viability of cancer cells, on average” value [2] did it give?
**A.** The value was 28%.

B1: EMAPII: endothelial-monocyte activating polypeptide II, C-terminus variant of AIMP1 (protein, UniProt Q12904 147-312, looked up)
Endothelial …: SKPIDVSRLDLRIGCIITARKHPDADSLYVEEVDVGEIAPRTVVSGLVNHVPLEQMQNRMVILLCNLKPAKMRGVLSQAMVMCASSPEKIEILAPPNGSVPGDRITFDAFPGEPDKELNPKKKIWEQIQPDLHTNDECVATYKGVPFEVKGKGVCRAQTMSNSGIK
modifications: Endothelial monocyte-activating polypeptide 2
**Q.** Which “effect on sensitivity to BRAF/MEK inhibition” value [3] does the source give for B1 here?
**A.** Its value is “conferred resistance to BRAF and MEK inhibition”.

**Q.** And the pERK reactivation [4]?
**A.** The pERK reactivation was “partially reactivate pERK”.

Reference: patent US20240133870A1, “COMBINED TREATMENT FOR CANCER” (Yeda Research and Development Co. Ltd., priority 2021, published 2024)
